Data: patent publication US12263248B2, “Compounds and compositions for intracellular delivery of therapeutic agents” (ModernaTX, Inc., priority 2018, dated 2025)

Columns and labels:
luciferase (Luc) mRNA [1] = experiment: Luc expression, whole body bioluminescence after intravenous administration to mice; assay type: in vivo; settings: for Total Flux 3 hours / Total Flux 6 hours / Total Flux 24 hours / luciferase activity relative to MC3 LNP control: mice; for Total Flux 3 hours / Total Flux 6 hours / Total Flux 24 hours: i.v., 0.5 mg/kg, Luc mRNA; for luciferase activity relative to MC3 LNP control: intravenous, 0.5 mg/kg (mRNA dose)
Procedure, shortened: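 Bioluminescence, read as region-of-interest total flux at 3, 6 and 24 h, followed a single 0.5 mg/kg intravenous dose of Luc mRNA-loaded nanoparticles in mice (n=6). Luciferin substrate (200 μL, 15 mg/mL in PBS) was injected intraperitoneally into CD-1 mice 15 minutes ahead of each imaging point.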

[2] = Apparent (surface) pKa of the LNP formulation (TNS assay); assay type: physicochemical
Procedure, shortened: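 Fluorescence of TNS probe added to LNP samples (mRNA 0.04 mg/mL) was read across 21 buffers of pH about 3-12, triplicate per pH. The inflection point of the sigmoidal fluorescence-vs-pH curve, […], gives apparent pKa; method validated in 1× PBS and Tris/sucrose buffer.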

IL-6, IP-10 = experiment: Cytokine induction in mice upon intravenous administration; assay type: in vivo; design: Cytokine induction IL-6 / Cytokine induction IP-10: unit not given here; settings: 0.5 mpk, 6 hours; for Cytokine induction IL-6 / Cytokine induction IP-10: intravenous
Procedure, shortened: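 IL-6 and IP-10 concentrations determined 6 hours after a single intravenous 0.5 mpk dose of lipid nanoparticle formulation in mice, with MC3 and PBS as comparators.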

[3] = Particle size and polydispersity index of nanoparticle compositions (Zetasizer Nano ZS); assay type: physicochemical; settings: for PDI (Polydispersity index) / Size: lipid nanoparticle, ±SD within one assay run (Table 37)
Procedure, shortened: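 Measured in 1×PBS by Zetasizer Nano ZS.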

[4] = Encapsulation efficiency of RNA (QUANT-IT RIBOGREEN RNA assay); assay type: physicochemical; settings: for % Encapsulation: lipid nanoparticle, ±SD within one assay run (Table 37)
Procedure, shortened: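 RiboGreen fluorescence (ex ~480, em ~520 nm) compared between intact samples and Triton X-100-lysed samples after 15 min at 37 °C in TE buffer, pH 7.5. Percent free RNA is the blank-corrected intact/disrupted ratio.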

luciferase (Luc) mRNA [5] = experiment: Luc expression in liver, lung, spleen and femur 6 hours after intravenous administration; assay type: in vivo; settings: mice, intravenous, 0.5 mpk
Procedure, shortened: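 LNP-formulated mRNA given IV to mice (n=3) at 0.5 mpk; at 6 h, bioluminescence imaged ex vivo 15 min after IP D-luciferin (15 mg/mL, 200 μL), organs imaged within 25 min. Values are total flux by region of interest.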

sC5b-9 = experiment: Complement activation in vitro (sC5b-9 levels); assay type: cell-based; settings: human cells contacted in vitro
Procedure: Complement activation assists in the clearance of pathogens from an organism. As it is undesirable that a subject's body recognize a nanoparticle composition as a foreign invader, low complement system activation upon administration of such a composition is preferred. The complex sC5b-9 is a marker for the activation of the complement system. Thus, human cells were contacted in vitro with nanoparticle compositions according to Table 1A and were evaluated for sC5b-9 levels.

[6] = Chemical stability of lipids in ethanol (lipid purity); assay type: physicochemical
Procedure: Ester linkages were previously reported to trigger metabolism by esterases in vivo. (See Fukami, T. et al. Drug Metab. Pharmacokinet. 2012, 27, 466-477, the content of which is incorporated by reference herein in its entirety). […] (See Maier M. A., Mol. Ther. 2013, 21, 1570-1578, the content of which is incorporated herein in its entirety) First, the chemical stability of the lipids was evaluated by measuring ethanol stability at room temperature and 37° C. (Table 39). […] LNPs formed with compound 138 were larger, with a surface pKa>7. […] Removal of one ester function (compound 136) afforded LNPs with improved physiochemical characteristics and lower LNP surface pKa.

[7] = Lipid clearance: lipid level in mouse liver tissue (LC-MS/MS); assay type: in vivo
Procedure: Quantification of Lipid by LC-MS/MS: Liver samples were homogenized following addition of 19 eq. (w/v) of water (DF=20). Protein was precipitated and analyzed against calibration standards prepared in matching blank. Chromatographic separation and quantification was accomplished with a LC-MS/MS System. Samples were injected and separated via HPLC A triple-quadrupole MS/MS system operated in positive ion mode was used for signal detection.

[8] = Residual lipid levels in rat liver and spleen (UPLC-MS); assay type: in vivo; settings: Table 19B, liver, 24 h
Procedure: At 48 h liver tissue was harvested for lipid quantification. To pre-weighed tissues, Milli-Q water was added (900 μL water per 100 mg tissue). Tissues were homogenized using an Omni probe homogenizer until uniform. 50 μL of samples and matrix calibration standards were aliquoted into a 96-well plate. 50 μL of blank matrix for matrix blanks and control blanks were aliquoted. 400 μL is spiking solution were manually added to all samples except matrix blanks. 400 μL of 50:50 ACN:IPA were manually added to matrix blanks. The plate was covered and the samples vortexed and centrifuged for 5 minutes at >3000 rpm. 200 μL of the samples were transferred into a clean 96-well plate for analysis. Samples were analyzed on a Waters Acquity UPLC using a Higgins Analytical Clipeus C8 column ([…], 30×2.1 mm) and a gradient of either 70-95% or 60-95% (Mobile Phase A: 5 mM ammonium formate in 50:50:1 H2O:MeOH:formic acid; Mobile Phase B: 5 mM ammonium formate in 100:1 MeOH:formic acid) over 1.3 min at 1.2 mL/min (column temperature 55° C.). Detection was based on electrospray ionization (ESI) in positive mode using a Sciex API5500 Mass Spectrometer.
(§1) The expression of hEPO in rats intravenously administered a nanoparticle composition at a dose of 0.2 mpk or 2.0 mpk was measured at 6 hours. Table 16 summarize the ratio of hEPO expression levels using various nanoparticle compositions as compared to the hEPO expression level using MC3 formulation and the lipid levels in the liver measured 48 hours after administration, as described above. Tables 17 and 18 summarize the lipid levels in the liver and spleen measured 48 hours after administration of Compounds 28, 33, 53, and 54. Liver and spleen levels represent the average values calculated for 3 rats in each group. As is shown in Tables 17 and 18, less than 10% of Compounds 28, 33, 53, and 54 remained in the liver after 48 hours, while greater than 60% of MC3 remained.
(§2) 005781 The expression of hEPO and lipid levels in the liver and spleen in rats intravenously administered a nanoparticle composition at a dose of 0.2 mpk was measured at various time points. Compounds 18 and 25 were selected for comparison with MC3. Lipids were formulated according to the standard MC3 formulation described above. Rats were administered intravenously a single 0.2 mpk dose and expression monitored at 0.25, 0.5, 1, 2, 4, 8, 24, and 48 hours after administration.

hEPO mRNA [9] = experiment: hEPO expression after intravenous administration to rats; assay type: in vivo, rat; settings: Table 19B
Procedure: The expression of hEPO and cytokine induction in rats intravenously administered a nanoparticle composition at a dose of 2.0 mpk was measured at 6 h.
as §1
The expression of hEPO induced by intravenous administration to rats of nanoparticle compositions at various doses was measured at 2, 4, 6, 8, 24, and 48 hour time points. FIGS. 3-6 respectively summarize the hEPO expression measured upon intravenous administration of formulations including Compounds 26, 18, 25, and MC3 to rat at various doses. The lipid levels of Compound 26 in the liver after 48 hours were about 19%.
as §2
Blood collection and analysis for hEPO. Blood was collected from mice or rats via the tail vein and hEPO concentrations were determined using a hEPO ELISA assay.

hEPO mRNA [10] = experiment: hEPO expression after subcutaneous administration to mice; assay type: in vivo, female CD-1 mice; settings: relative to MC3
Procedure: The effect of the lipids of the disclosure on protein expression upon subcutaneous administration was studied. Formulations containing lipids of the disclosure and an mRNA expressing luciferase or hEPO were administered subcutaneously to female CD-1 mice at 0.5 mpk. Expression levels were obtained via whole body luminescent imaging (BLI) at 3, 6 and 24 hours after injection and expression levels in liver, spleen and at the injection site were evaluated ex vivo after 24 hours. […] See also Tables 35 and 36, and FIGS. 19 and 27.
Table 36 summarizes the hEPO expression levels using various nanoparticle compositions of the disclosure as compared to the hEPO expression level using a formulation containing MC3 or Compound 18, following subcutaneous administration, as described above.

[11] = Table 1A, lipid:DSPC:cholesterol:PEG-DMG 50:10:38.5:1.5 mol %
[12] = lipid nanoparticle, ±SD within one assay run (Table 37)
[13] = Table 1B, formulated with hEPO mRNA
[14] = Table 1D, for subcutaneous administration, # formulated with hEPO mRNA

SMILES | Total Flux 3 hours (luciferase (Luc) mRNA [1]) | Total Flux 6 hours (luciferase (Luc) mRNA [1]) | Total Flux 24 hours (luciferase (Luc) mRNA [1]) | pKa ([2]; Table 1A) | Cytokine induction IL-6 (IL-6, IP-10) | Cytokine induction IP-10 (IL-6, IP-10) | PDI ([3]; Table 1A) | Size (nm) [3, 11] [nm] | EE (%) ([4]; Table 1A) | Total Flux Femur (luciferase (Luc) mRNA [5]) | Total Flux Liver (luciferase (Luc) mRNA [5]) | Total Flux Lung (luciferase (Luc) mRNA [5]) | Total Flux Spleen (luciferase (Luc) mRNA [5]) | luciferase activity relative to MC3 LNP control (luciferase (Luc) mRNA [1]) | pKa [2, 12] | Lipid Purity ([6]; t = 0) [%] | Lipid Purity ([6]; t = 96 h, 25° C.) [%] | Lipid Purity ([6]; t = 96 h, 37° C.) [%] | PDI (Polydispersity index) [3] | Size [3] [nm] | other results
CCCCCCCCCCCCCCCCCCN(CCO)CCCCCCCC(=O)OC(CCCCCCCC)CCCCCCCC [Compound 1, Heptadecan-9-yl 8-((2-hydroxyethyl)(octadecyl)amino)octanoate] | 3.48E+09 | 3.40E+09 | 4.10E+08 | 6.50 | 267.24 | 687.14 | 0.091 | 72.7 | 97.04 | 7.52E+05 | 4.02E+08 | 1.72E+06 | 4.27E+06 |  |  |  |  |  |  |  | Fold increase in total body Luc Flux relative to MC3 at 6 h (luciferase (Luc) mRNA [1]; Table 3A, i.v. administration): 0.40; IL-6 induction (IL-6, IP-10; i.v., in words): highest; Fold increase in sC5b-9 levels versus saline (sC5b-9): 0.82; sC5b-9 levels relative to saline (sC5b-9; in words): slightly decrease
CCCCCCCCCOC(=O)CCCCCCCN(CCCCCCCC(=O)OC(CCCCCCCC)CCCCCCCC)CCN(C)C [Compound 14, Heptadecan-9-yl 8-((2-(dimethylamino)ethyl)(8-(nonyloxy)-8-oxooctyl)amino)octanoate] | 4.43E+08 | 2.29E+09 | 1.39E+08 | 6.58 | 75.29 | 621.49 | 0.15 | 130.1 | 95.24 | 4.91E+06 | 1.91E+08 | 4.74E+06 | 1.92E+08 | complete loss of delivery efficiency | 6.58 ± 0.11 | 92.08 | 92.07 | 91.90 | 0.15 ± 0.07 | 130.1 ± 3.5 | % Encapsulation [4]: 95.2 ± 0.5%
CCCCCCCCCOC(=O)CCCCCCCN(CCCCCCCC(=O)OC(CCCCCCCC)CCCCCCCC)CCCNC(=O)C(C)(C)COC [Compound 281, Heptadecan-9-yl 8-((3-(3-methoxy-2,2-dimethylpropanamido)propyl)(8-(nonyloxy)-8-oxooctyl)amino)octanoate] |  |  |  |  |  |  |  |  |  |  |  |  |  | two-fold lower | 6.79 ± 0.37 | 95.17 | 95.15 | 96.47 | 0.14 ± 0.05 | 93.8 ± 5.6 | % dose remaining Mouse liver tissue, 24 h ([7]; CD-1 mouse liver 24 h after 0.5 mg/kg bolus dose mRNA, n = 5 ± S.D.): 66 ± 22%; original dose remaining in liver tissue 24 hours post dose ([7]; mice, intravenous): 66%; % Encapsulation [4]: 96.9 ± 1.2%
CCCCCCCCCOC(=O)CCCCCCCN(CCCCCCCC(=O)OC(CCCCCCCC)CCCCCCCC)CCCN/C(=N/S(C)(=O)=O)N(C)C [Compound 233, Heptadecan-9-yl (Z)-8-((3-(3,3-dimethyl-2-(methylsulfonyl)guanidino)propyl)(8-(nonyloxy)-8-oxooctyl)amino)octanoate] |  |  |  |  |  |  | 0.11 | 66.9 | 97.81 |  |  |  |  |  |  |  |  |  |  |  | % dose remaining, liver, 24 h [8]: 0.07%; PDI [3, 13]: 0.21; Size (nm) [3, 13]: 93.7 nm; PDI [3, 14]: 0.13; Size (nm) [3, 14]: 87.0 nm; AUC (hEPO) (hEPO mRNA [9]): 129000 pg·h/mL; Lipid/MC3 ([hEPO] ratio) (hEPO mRNA [9]; relative to MC3): 0.00664; Lipid/MC3 AUC (hEPO mRNA [9]; relative to MC3): 0.01; [hEPO] (hEPO mRNA [9]; species, dose and time not given): 9800 pg/mL; Novel lipid/MC3 expression ratio, 6 hr. time point, s.c. hEPO 0.5 mpk (hEPO mRNA [10]): 0.03; EE (%) [4, 13]: 97.6%; % EE [4, 14]: 97.5%
